Measurements taken from patent US20240215577A1, “FUNGICIDAL PYRIDONES” (FMC Corporation, priority 2021, published 2024).

Columns and labels:
Alternaria solani = assay: Test F: tomato early blight, preventive spray on tomato seedlings; assay type: in vivo; details: 50 ppm, 100 = 100% disease control, 0 = no control; for pest or weed control at 50 ppm: Alternaria solani, read-out: Test F disease control rating
Procedure, shortened: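 Compounds in acetone/water (50/50) with 250 ppm PEG400 were sprayed to run-off on tomato seedlings and inoculated with Alternaria solani spores the next day. Plants were held in saturated humidity at 27° C for 48 h, then at 20° C for 3 days. Disease control was rated visually, 0–100, against controls.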

[1] = system: Puccinia recondita f. sp. tritici; assay: Test B: wheat leaf rust, preventive spray on wheat seedlings; assay type: in vivo; details: 50 ppm, 100 = 100% disease control, 0 = no control; for pest or weed control at 50 ppm: Puccinia recondita, read-out: Test B disease control rating
Procedure, shortened: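 Wheat seedlings sprayed to run-off with compound suspended at set ppm in 50/50 acetone/water (3% acetone pre-dissolution, 250 ppm PEG400); inoculated with rust spores next day. Held 24 h saturated at 20° C., then 7 days in growth chamber at 20° C.; visual rating, 0–100% disease control versus controls.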

Phakopsora pachyrhizi = assay: Test D: Asian soybean rust, preventive spray on soybean seedlings; assay type: in vivo; details: 50 ppm, 100 = 100% disease control, 0 = no control; for pest or weed control at 50 ppm: Phakopsora pachyrhizi, 216 h, read-out: Test D disease control rating
Procedure, shortened: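 Soybean seedlings sprayed to run-off with compound suspension (ppm, in 50/50 acetone/water with 250 ppm PEG400), inoculated next day with P. pachyrhizi spores, held 24 h saturated at 22°C then 8 days at 22°C. Visual rating 0-100% disease control relative to controls.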

Zymoseptoria tritici = assay: Test A: wheat leaf blotch, preventive spray on wheat seedlings; assay type: in vivo; details: 50 ppm, 100 = 100% disease control, 0 = no control; for pest or weed control at 50 ppm: Zymoseptoria tritici, read-out: Test A disease control rating
Procedure, shortened: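 Wheat seedlings were sprayed to run-off with compound in acetone/water 50/50 containing 250 ppm PEG400 and inoculated with Z. tritici spores the next day. Plants were held 48 h saturated at 24 °C, then 17 days at 20 °C. Disease was rated 0–100% control relative to controls.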

[2] = system: Blumeria graminis f. sp. tritici; assay: Test C: wheat powdery mildew, preventive spray on wheat seedlings; assay type: in vivo; details: 50 ppm, 100 = 100% disease control, 0 = no control; for pest or weed control at 50 ppm: Blumeria graminis, read-out: Test C disease control rating
Procedure, shortened: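 Preventive assay: wheat seedlings sprayed to run-off with compound at the stated ppm (acetone/water 50/50, 250 ppm PEG400), dusted with B. graminis f. sp. tritici spores the following day, then kept 8 days at 20°C. Disease control visually scored 0-100 versus controls.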

Botrytis cinerea = assay: Test E: tomato Botrytis, preventive spray on tomato seedlings; assay type: in vivo; details: 50 ppm, 100 = 100% disease control, 0 = no control; for pest or weed control at 50 ppm: Botrytis cinerea, read-out: Test E disease control rating
Procedure, shortened: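 Compounds dissolved in acetone (3% of final volume), suspended in 50/50 acetone/water with 250 ppm PEG400, sprayed to run-off on seedlings. Spore inoculation next day; 48 h saturated atmosphere at 20° C, then 3 days at 24° C. Visual disease rating 0–100% control relative to controls.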

SMILES	pest or weed control at 50 ppm (Alternaria solani) [%]	melting point [°C]	pest or weed control at 50 ppm [1] [%]	pest or weed control at 50 ppm (Phakopsora pachyrhizi) [%]	pest or weed control at 50 ppm (Zymoseptoria tritici) [%]	pest or weed control at 50 ppm [2] [%]	pest or weed control at 50 ppm (Botrytis cinerea) [%]	Test F disease control rating (Alternaria solani) [%]	Test B disease control rating [1] [%]	Test D disease control rating (Phakopsora pachyrhizi) [%]	Test A disease control rating (Zymoseptoria tritici) [%]	Test C disease control rating [2] [%]	Test E disease control rating (Botrytis cinerea) [%]
COc1cc(OC)c(Br)c(-c2cn(C)c(=O)c(Cl)c2-c2ccc(F)cc2F)c1 [Compound 9, 5-(2-bromo-3,5-dimethoxyphenyl)-3-chloro-4-(2,4-difluorophenyl)-1-methyl-2(1H)-pyridinone]	100	211 to 214	100	100	100	99	98	–	–	–	–	–	–
COc1cc(OC)c(Cl)c(-c2cn(C)c(=O)c(C)c2-c2ccc(F)cc2Cl)c1 [Compound 13, 5-(2-chloro-3,5-dimethoxyphenyl)-4-(2-chloro-4-fluorophenyl)-1,3-dimethyl-2(1H)-pyridinone]	100	140 to 143	100	100	100	100	94	–	–	–	–	–	–
COc1ccc(Br)c(-c2cn(C)c(=O)c(Cl)c2-c2ccc(F)cc2F)c1 [Compound 20, 5-(2-bromo-5-methoxyphenyl)-3-chloro-4-(2,4-difluorophenyl)-1-methyl-2(1H)-pyridinone]	99	227 to 230	100	97	100	98	98	–	–	–	–	–	–
COc1cc(OC)c(Cl)c(-c2cn(C)c(=O)c(Cl)c2-c2ccc(F)cc2F)c1 [Compound 29, 3-chloro-5-(2-chloro-3,5-dimethoxyphenyl)-4-(2,4-difluorophenyl)-1-methyl-2(1H)-pyridinone]	99	189 to 192	100	100	100	99	94	–	–	–	–	–	–
COc1ccc(Cl)c(-c2cn(C)c(=O)c(Cl)c2-c2ccc(F)cc2F)c1 [Compound 30, 3-chloro-5-(2-chloro-5-methoxyphenyl)-4-(2,4-difluorophenyl)-1-methyl-2(1H)-pyridinone]	99	192 to 195	100	100	100	100	94	–	–	–	–	–	–
COc1cc(OC)c(F)c(-c2cn(C)c(=O)c(Cl)c2-c2ccc(F)cc2F)c1 [Compound 51, 3-chloro-4-(2,4-difluorophenyl)-5-(2-fluoro-3,5-dimethoxyphenyl)-1-methyl-2(1H)-pyridinone]	100	155 to 158	100	99	100	98	98	–	–	–	–	–	–
C=CCn1cc(-c2cc(OC)ccc2Cl)c(-c2ccc(F)cc2Cl)c(Cl)c1=O [Compound 77]	–	–	–	–	–	–	–	0	74	0	40	0	91
